Reference: patent US20160363580A1, “Methods of Metabolic Kinetic Phenotyping and Uses Thereof” (The Texas A&M University System, priority 2015, published 2016)

Test: Pulse tracer protocol (bolus L-[15N]-Phe), two compartmental model of Phe kinetics
Assay type: in vivo, pigs
Conditions: for EC Phe pool (extracellular Phe pool, Q1) / Flux of Phe between intra- and extracellular pool (F12, F21) / Frac. irr. loss (fractional irreversible loss of Phe from the intracellular pool, k02) / IC Phe pool (intracellular Phe pool, Q2) / IC Phe release (fractional intracellular release to extracellular pool, k12) / IC Phe uptake (fractional intracellular uptake from extracellular pool, k21) / Irr. loss (irreversible loss of Phe from the intracellular pool, F02): mean±SEM; for Q1 plasma pool size, mean value: SAAM II fit
Method: Female Yorkshire cross/domestic pigs (20-25 kg BW) were used in the experimental studies. The pigs were housed in steel pens (2 m×3 m) in a controlled housing facility with large animal cubicle at room temperature 22-24° C. with 12 hours light-dark cycle. The pigs were fed with standardized food 1 kg/day (Harlan Teklad Vegetarian Pig/Sow Grower)) and provided water ad libitum.
Animals received catheters and a jejunal stoma during a surgical procedure. During midline laparotomy, catheters were placed into the abdominal aorta for blood sampling, and in the caval vein for administering post-surgery medication and experiment related tracer infusions. A second arterial catheter was placed to monitor mean arterial blood pressure (MAP). A Swan ganz catheter (5 Fr, #132F5, Edwards life sciences, Irvine, Calif., USA) was placed via the right jugular vein to monitor mean pulmonary blood pressure (MPAP). Both preoperative and postoperative cares were standardized. During the recovery period (7-10 days) animals were accustomed to a small movable cage (0.9×0.5×0.3 m). The experiments were performed in this cage on awake animals. This study was approved by the animal experiment ethics committee of University of Arkansas Medical Sciences.
For the induction of sepsis, a live Pseudomonas aeruginosa (PM) human strain is used (IRS 12-4-4, Shriners burns institute, University of Texas Medical Branch, Galveston). Originally, this PM strain was isolated from a burnt patient at Brook Army Medical Center in San Antonio, Tex. Based on pilot virulence experiment, 10^9 Colony Forming Units per hour (CFU/hour) in a volume of 1 ml 0.9% NaCl solution was needed to obtain similar cardiovascular responses and hemodynamic variables with characteristics of severe hyperdynamic sepsis. Hemodynamics was continuously monitored to ensure that the hyperdynamic state was kept in the expected ranges for severe sepsis (body temp increase of 2-3° C., respiratory rate increased, MPAP increased but <35 mmHg, heart rate increased but <200 BPM).
The experiment started after a recovery period of 7-10 days. Four hours after the last food intake (half of the daily amount: 0.5 kg), animals were selected from the Sepsis group or the Healthy group in a randomized fashion. […] At T=0 h, sepsis was induced to the sepsis group by continuous infusion of Pseudomonas aeruginosa (PM, 10^9 CFU/ml/hour), while the Healthy group received an equal volume of 0.9% NaCl solution. Fluid resuscitation (30 ml/kg bw/hour) was also started at T=0 h and hemodynamics were monitored continuously. The results for the primed-continuous tracer protocol (PC) and the pulse tracer protocol were compared between 17 and 18 hours after the start of Pseudomonas aeruginosa. At t=18 h, the pigs were euthanized with 125 mg/k pentobarbital sodium and 16 mg phenytoin sodium (Euthanasol®).
Two stable isotopes of Phe: L-[ring-^13C6]-Phe and L-[^15N]-Phe (Cambridge Isotopes, Andover, Mass.) were used as tracers to study whole body rate of appearances of Phe (WbRa) with two tracer infusion protocols. Phe has been used to determine whole body protein breakdown. Previously studies were conducted based on the prime amount and tracer infusion rates. For the primed-continuous infusion protocol (PC), L-[ring-^13C6]-Phe was used. The prime (1.58 μmol/kg bw) and infusion (4.32 μmol/kg bw/hour) was given respectively in a volume of 2 ml/kg bw and 2 ml/kg bw/hour. It started 12 hours after the start of Pseudomonas aeruginosa, which is also 5 hours before the pulse protocol (PULSE). The L-[^15N]-Phe (26.3 μmol/kg bw in a volume 0.5 ml/kg bw) was used for the pulse protocol. All tracers are given via the central caval vein catheter.
Blood samples were taken and directly cooled on ice. The blood samples were processed within one hour. For amino acid concentration and enrichment analysis, heparinized blood was centrifuged at 4° C., 8000 G for 5 minutes. […]

k02 proportionality constant, mean value (Healthy pigs): 0.033 min⁻¹
k12 proportionality constant, mean value (Healthy pigs): 0.051 min⁻¹
k21 proportionality constant, mean value (Healthy pigs): 0.115 min⁻¹
EC Phe pool (extracellular Phe pool, Q1) (Healthy pigs n=9): 44 ± 2.2 μmol/kg BW
Flux of Phe between intra- and extracellular pool (F12, F21) (Healthy pigs n=9): 5.02 ± 0.40 μmol/kg BW/min
Frac. irr. loss (fractional irreversible loss of Phe from the intracellular pool, k02) (Healthy pigs n=9): 3.33 ± 0.21 %/min
IC Phe pool (intracellular Phe pool, Q2) (Healthy pigs n=9): 105 ± 8.0 μmol/kg BW
IC Phe release (fractional intracellular release to extracellular pool, k12) (Healthy pigs n=9): 5.09 ± 0.69 %/min
IC Phe uptake (fractional intracellular uptake from extracellular pool, k21) (Healthy pigs n=9): 11.5 ± 0.71 %/min
Irr. loss (irreversible loss of Phe from the intracellular pool, F02) (Healthy pigs n=9): 3.38 ± 0.10 μmol/kg BW/min
Q1 plasma pool size, mean value (Healthy pigs): 1121 µmol
k02 proportionality constant, mean value (Sepsis pigs): 0.028 min⁻¹
k12 proportionality constant, mean value (Sepsis pigs): 0.044 min⁻¹
k21 proportionality constant, mean value (Sepsis pigs): 0.105 min⁻¹
EC Phe pool (extracellular Phe pool, Q1) (Sepsis pigs n=13): 63 ± 5.5 μmol/kg BW
Flux of Phe between intra- and extracellular pool (F12, F21) (Sepsis pigs n=13): 6.86 ± 0.42 μmol/kg BW/min
Frac. irr. loss (fractional irreversible loss of Phe from the intracellular pool, k02) (Sepsis pigs n=13): 2.83 ± 0.15 %/min
IC Phe pool (intracellular Phe pool, Q2) (Sepsis pigs n=13): 157 ± 8.2 μmol/kg BW
IC Phe release (fractional intracellular release to extracellular pool, k12) (Sepsis pigs n=13): 4.43 ± 0.25 %/min
IC Phe uptake (fractional intracellular uptake from extracellular pool, k21) (Sepsis pigs n=13): 10.6 ± 0.76 %/min
Irr. loss (irreversible loss of Phe from the intracellular pool, F02) (Sepsis pigs n=13): 4.33 ± 0.16 μmol/kg BW/min
Q1 plasma pool size, mean value (Sepsis pigs): 1655 µmol
intracellular pool relative to extracellular pool (pigs): 2.2 times
Structure (SMILES): N[C@@H](Cc1ccccc1)C(=O)O [Phe, phenylalanine]
